Molecules are shown by their SMILES.

This passage reports AC35 results from PubChem BioAssay AID743395 (Broad Institute, 2014).

This assay relates to HepG2 viability, CellTiter-Glo ATP luminescence, 72 h. Put plainly: HepG2 cell cytotoxicity, dose response, cytotoxicity control, CellTiter-Glo luminescence, cherry-pick, set 2 (AID 743395). For orientation: In ATP-based viability assays light output follows the ATP content of the culture.

In the case of `COc1cc(C(=O)N/N=C(\c2ccccc2)c2ccccn2)cc(OC)c1OC`, the AC35 is 1.46 µM. Under `O=C(Nc1cccc(F)c1)N1CCCCN2[C@@H](CO)[C@H](c3ccc(C#CC4CC4)cc3)[C@@H]2C1` stands 10.1 µM. Under `CC(=O)Nc1cccc(-c2ccnc3c2CC(C)(C(=O)Nc2ccc4c(c2)OCO4)O3)c1` (centres undefined) stands 17.4 µM. As to `Cc1nc(C)c(C(=O)NN=Cc2ccc(N(CCCl)CCCl)cc2)s1`, the AC35 was 11.8 µM.

On to `COc1cc(OC)cc(-c2cc3ccc(OC)cc3cn2)c1`, for which the AC35 is 4.68 µM. Under `COc1ccc(CCNc2c3ccccc3nc3ccccc23)cc1OC` stands 6.93 µM; under `CN(C)CCCNc1c2ccccc2nc2ccccc12`, 0.794 µM. As for `CCCC(=O)NC1=C(Cl)C(=O)c2ccccc2C1=O`, the AC35 is 9.76 µM.

Take `Cc1ccc(-c2ccc([C@H]3[C@@H](CO)N4CCCCN(C(=O)Nc5cccc(F)c5)C[C@H]34)cc2)cc1`: the AC35 was 11 µM.

Regarding `CC(C)(C)c1ccc(/C=C/C(=O)c2ccc(NC3=NCCCS3)cc2)cc1`, the AC35 is 18.2 µM.

Consider `Cc1cccc(N2CCN(C(=O)c3c(-c4ccccc4)noc3C)CC2)c1C`, for which the AC35 was 4.42 µM. For the molecule `O=C(N/N=C/c1cccs1)c1cc(C2CC2)nc2ccccc12`, the AC35 was 21.1 µM. Then `COc1cccc(Sc2ccccc2/C=N/NC(N)=O)c1`, with 9.98 µM.

In the case of `CCC1=C(CC2NCCc3ccccc32)CC2c3cc(OC)c(OC)cc3CCN2C1` (centres undefined), the AC35 was 18.2 µM. With `COC1C(C)OC(OC2CC(C)(O)Cc3cc4c(c(O)c32)C(=O)c2c(O)cc3c(c2C4=O)OC2OC3(C)C(O)C(N(C)C)C2O)C(OC)C1(C)OC` (centres undefined), the AC35 is 5.03 µM. Turning to `CCOC(=O)N1CCC(NC(=O)c2ccc3c(c2)N=C(C)c2c(C)ccc(C)c2S3)CC1`, the AC35 was 2.44 µM. For the molecule `CC(=NNC(=S)Nc1ccc(C)cc1)c1ccccn1`, the AC35 is 0.123 µM.

Take `O=C1c2ccc3c4c(ccc(c24)C(=O)N1CCCCO)C(=O)N(CCCCO)C3=O`: the AC35 was 2.63 µM. Under `COc1cccc(N2CCN(C(=O)c3ccc(CS(=O)c4ccc(C)cc4)o3)CC2)c1` (centres undefined) stands 0.833 µM; under `COc1cccc2c1C(=O)c1c(O)c3c(c(O)c1C2=O)C[C@](O)(C(C)=O)C[C@H]3O[C@@H]1C[C@@H](N)[C@@H](O)[C@@H](C)O1`, 0.0738 µM; under `O=C(Nc1cccc(C2=NCCN2)c1)Nc1cccc(C2=NCCN2)c1`, 5.69 µM.

On to `CN(Cc1ccccc1)S(=O)(=O)c1ccc(NC(=S)NC(=O)C2CCCC2)cc1`, for which the AC35 was 9.62 µM. Turning to `Cc1ccc(C2NC(=O)c3ccccc3N2)c(C)c1` (centres undefined), the AC35 was 13.8 µM. Then `O=C(c1cccc(S(=O)(=O)N2CCN(c3ccc(F)cc3)CC2)c1)N1CCCC(C(F)(F)F)C1` (centres undefined), with 9.64 µM; and `COC(C(=O)C(O)C(C)O)C1Cc2cc3cc(OC4CC(OC5CC(O)C(O)C(C)O5)C(O)C(C)O4)c(C)c(O)c3c(O)c2C(=O)C1OC1CC(OC2CC(OC3CC(O)C(OC)C(C)O3)C(O)C(C)O2)C(O)C(C)O1` (centres undefined), with 0.148 µM; and `CCc1cc(-c2nnn(CCC3COCCO3)c2CC)ccc1-c1cn(Cc2ccc3ccccc3c2)nn1` (centres undefined), with 15.8 µM.

For the molecule `COc1ccc(OC)c(-c2cc(-c3cccnc3)nc(N)c2C#N)c1`, the AC35 is 10.6 µM.

For `COc1ccc(CCNc2ncnc3c2oc2ccccc23)cc1OC`, the AC35 is 11.3 µM. Then `COc1ccc2cc(CN(CC3CCCO3)C(=S)Nc3ccccc3)c(=O)[nH]c2c1` (centres undefined), with 13 µM. For `CC(C)CN(CCCNC(=O)CN1C(=O)CSc2ccc(S(=O)(=O)N3CCOCC3)cc21)CC(C)C`, the AC35 is 6.21 µM. For the molecule `COc1cc2c(C#CCCO)c(-c3ccsc3)oc(=O)c2cc1OC`, the AC35 is 21 µM. Under `COC(=O)c1ccc(/C=C/c2c(-c3ccc(OC)cc3)oc3ccc(N4CCOCC4)cc23)cc1` stands 16 µM; under `Cc1ccccc1S(=O)(=O)N1C[C@@H]2N[C@H](C1)C2c1ccc(-c2cccc(C#N)c2)cc1` (some centres undefined), 9.94 µM; under `COc1ccc(N2CCc3c(C)nc4c(OC)cc(OC)cc4c32)cc1`, 9.38 µM. Regarding `CC(=O)N1CCc2c(sc(NC(=O)c3ccc4c(c3)OCCO4)c2C#N)C1`, the AC35 was 19.4 µM. Then `CCC(=O)NC(c1ccc(C)cc1)c1ccc2cccnc2c1O` (centres undefined), with 1.42 µM. Regarding `COc1ccc(CN(C)C[C@H]2OCCCC[C@H](C)Oc3ccc(NC(=O)Nc4ccc(C(F)(F)F)cc4)cc3C(=O)N([C@H](C)CO)C[C@H]2C)cc1`, the AC35 is 10.1 µM. `NC(=O)N=Nc1c2[nH]c3ccccc3nc-2c2ccccc12`: the AC35 was 16.6 µM.

On to `Cc1cccc(Nc2nc(N)nc(-c3oc4ccccc4c3C)n2)c1`, for which the AC35 is 15.4 µM.

Regarding `COc1ccc(-c2ccc3oc(-c4ccc(OC)cc4)c(C#CCO)c3c2)cc1`, the AC35 is 3.2 µM. `O=[N+]([O-])c1ccc(N2CCOCC2)c2c1no[n+]2[O-]`: the AC35 is 8.72 µM. Consider `Nc1c2ccccc2nc2ccccc12`, for which the AC35 was 2.63 µM.

Regarding `Cc1cc(N/N=C/c2ccccc2O)c2ccccc2n1`, the AC35 is 19.7 µM. Under `CCN(CC)CCn1c2ccccc2c2nc3ccccc3nc21` stands 19.9 µM; under `COc1ccc(NC(=O)c2nc(C)c(C3(C)CC(c4ccccc4)=NO3)s2)cc1` (centres undefined), 17.1 µM; under `Cc1nc(/N=C(\N)NC(=O)NC2CCCCC2)nc2ccccc12`, 20.2 µM.

With `COc1ccc([C@H]2CC(=O)C=C(c3c(OC)cccc3OC)C2)cc1`, the AC35 is 3.37 µM. Under `COc1ccc(-c2ccc3c(c2)[C@H]2[C@H](CCN2S(=O)(=O)c2ccc(OC)cc2)[C@@H](CO)N3)cc1` stands 14.5 µM; under `COCCNC(=O)c1cc(-c2ccc(-c3ccccc3)cc2)nc2ccccc12`, 17.9 µM; under `COc1ccc([C@H]2CC(=O)C=C(c3ccc(OC)cc3OC)C2)cc1`, 7.54 µM. `O=C(N/N=C/c1cc2c3c(c1O)CCCN3CCC2)c1ccccc1O`: the AC35 is 0.751 µM. Under `O=C(c1cc(-c2ccncc2)nc2c(Cl)cccc12)N1CCN(c2ccccc2F)CC1` stands 8.73 µM; under `O=C(Nc1ccc(OC(F)(F)F)cc1)c1ccc2c(c1)no[n+]2[O-]`, 17.6 µM; under `N#C[C@H]1[C@H](c2ccc(C3=CCCCC3)cc2)[C@@H](CO)N1C(=O)NC1CCCCC1`, 10.3 µM. Regarding `COc1ccc(C2=Nn3c(nnc3-c3ccccc3F)SC2)cc1OC1CCCC1`, the AC35 was 11.1 µM.

`CCCC(=O)Nc1nc2ccc(NC(=O)c3c(F)c(F)c(OC)c(F)c3F)cc2s1`: the AC35 was 7.54 µM. For `COc1cccc(-c2ccc(C3[C@@H]4CN(S(=O)(=O)c5cccc(OC)c5)C[C@H]3N4)cc2)c1` (some centres undefined), the AC35 is 8.91 µM. On to `Cc1ccc(COc2ccccc2-c2cc(C(=O)N/N=C/c3cccnc3)[nH]n2)cc1`, for which the AC35 was 14.7 µM. Then `Cn1nccc1C(=O)N/N=C/c1c(O)ccc2ccccc12`, with 4.13 µM; and `Cc1cc(NCc2ccccn2)n2nc(C)c(-c3ccccc3)c2n1`, with 10 µM. Then `COc1ccc(OC)c(/C(C)=N\NC(=O)c2cc3cc(Cl)ccc3n2C)c1`, with 14 µM; and `COc1ccc(OC)c2[nH]c(C(=O)N/N=C/c3ccccc3O)cc12`, with 3.77 µM.

As for `COC(=O)c1cc(C(=O)N2CCN(c3cccc(Cl)c3)CC2)cc([N+](=O)[O-])c1`, the AC35 was 14.1 µM.

With `C[C@@H]1CN([C@@H](C)CO)C(=O)Cc2cc(NC(=O)Nc3cccc4ccccc34)ccc2O[C@@H]1CN(C)Cc1ccc(Cl)c(Cl)c1`, the AC35 is 14.5 µM.
